Measured values taken from patent US20110152332A1, “Pesticidal Heterocyclic Compounds” (Bayer CropScience AG, priority 2009, published 2011).

Experiments:
Type in all cases: in vivo
[1] = test system: Tobacco cutworm (Spodoptera litura) larvae; experiment: Test against tobacco cutworm (Spodoptera litura) larvae, leaf dip; conditions: active compound concentration 100 ppm; third instar larvae on dipped sweet potato leaves; after 7 days
Experimental: (§1) Unless described otherwise, the test solutions were prepared as follows:
(§2) The active compound, 1 part by weight of the active compound was admixed with the solvent in the above described amount which contains the emulsifying agent in the above described amount. The mixture was then diluted with water to specific concentration.
(§3) In order to prepare the test solution containing the active compound, 1 part by weight of the active compound was admixed with 3 parts by weight of the solvent dimethyl formamide which contains 1 part by weight of the emulsifying agent polyoxyethylene alkylphenyl ether. This mixture is then diluted with water to the specific concentration.
(§4) Solvent: dimethyl formamide, 3 parts by weight; emulsifying agent: polyoxyethylene alkylphenyl ether, 1 part by weight
Leaves of sweet potato were immersed in the test solution at the appropriate concentration, and the leaves were dried in air. The leaves were then placed in a petri dish having a diameter of 9 cm, and ten Spodoptera litura at third instar larvae were released therein. The petri dishes were placed in a temperature-controlled chamber at 25° C. After 2 days and 4 days more sweet potato leaves were added. After 7 days, the number of dead larvae was counted to calculate the insecticidal activity. An insecticidal activity of 100% means that all larvae were killed, whereas an insecticidal activity of 0% means that no larva was killed. In the current test, the results of two petri dishes for each treatment were averaged.

[2] = test system: Two-spotted spider mite (Tetranychus urticae); experiment: Test against two-spotted spider mite (Tetranychus urticae), spray; conditions: active compound concentration 100 ppm; adult mites on kidney bean, sprayed; after 7 days
Experimental: as §1, §2, §3, §4
50 to 100 adult mites of Tetranychus urticae were inoculated to leaves of kidney bean at two-leaf stage planted in a pot of 6 cm in diameter. After one day, test solution at the appropriate concentration was sprayed thereon in a sufficient amount using a spray gun. After the spraying, the plant pot was placed inside a greenhouse, and after 7 days, the acaricidal activity was calculated. An acaricidal activity of 100% means that all mites were killed, whereas an acaricidal activity of 0% means that no mite was killed.

[3] = test system: Cucurbit leaf beetle (Aulacophora femoralis); experiment: Test against cucurbit leaf beetle (Aulacophora femoralis), leaf dip; conditions: active compound concentration 100 ppm; second instar larvae on dipped cucumber leaves; after 7 days
Experimental: as §1, §2, §3, §4
Leaves of cucumber were immersed in the test solution at the appropriate concentration, and the leaves were dried in air. The leaves were then put in a plastic cup containing sterilized black soil and five Aulacophora femoralis at second instar larvae were released in the cup. The cups were placed in a temperature-controlled chamber at 25° C. After 7 days, the number of dead larvae was counted, and thus the insecticidal activity was calculated. An insecticidal activity of 100% means that all larvae were killed, whereas an insecticidal activity of 0% means that no larva was killed.

[4] = test system: Lucilia cuprina 1st instar larvae; experiment: Lucilia cuprina-test (LUCICU 48 h); conditions: application rate 100 ppm, 1st instar larvae on minced horse meat, after 2 days, read-out: activity (percentage of larval mortality)
Experimental: Species: Lucilia cuprina 1st instar larvae (age 24 hrs)
(§5) Solvent: dimethyl sulfoxide
10 mg active compound are dissolve in 0.5 ml Dimethylsulfoxid. Serial dilutions are made to obtain the desired rates. Approximately 20 Lucilia cuprina 1st instar larvae are transferred into a test tube containing 1 cm^3 of minced horse meat and 0.5 ml aqueous dilution of test compound. After 2 days percentage of larval mortality are recorded. 100% efficacy=all larvae are killed, […].

[5] = test system: Ctenocephalides felis; experiment: Ctenocephalides felis-test (CTECFE); conditions: Ctenocephalides felis, 48 h; application rate 100 ppm in cattle blood; adult unfed fleas; after 2 days
Experimental: as §5
To produce a suitable preparation of active compound, 10 mg of active compound are dissolved in 0.5 ml solvent, and the concentrate is diluted with cattle blood to the desired concentration. Approximately 20 adult unfed (Ctenocephalides felis) are placed in flea chambers. The blood chamber, sealed with parafilm on the bottom, are filled with cattle blood supplied with compound solution and placed on top of the flea chamber, so that the fleas are able to suck the blood. The blood chamber is heated to 37° C. whereas the flea chamber is kept at room temperature. After 2 days mortality in % is determined. 100% means that all the fleas have been killed; 0% means that none of the fleas have been killed.

[6] = test system: Musca domestica; experiment: Musca domestica-test; conditions: application rate 100 ppm, adults, sugar/compound soaked sponge, after 2 days
Experimental: as §5
To produce a suitable preparation of active compound, 10 mg of active compound are dissolved in 0.5 ml solvent, and the concentrate is diluted with water to the desired concentration. Prior to the assay, a piece of kitchen sponge is soaked with a mixture of sugar and compound solution and placed into a container. 10 adults (Musca domestica) are placed into the container and closed with a perforated lid. After 2 days mortality in % is determined. 100% means that all the flies have been killed; 0% means that none of the flies have been killed.

[7] = test system: Boophilus microplus; experiment: Boophilus microplus (dip); conditions: application rate 100 ppm; adult engorged female ticks dipped one minute; after 7 days
Experimental: Solvent: dimethylsulfoxid
To produce a suitable preparation of active compound, 10 mg of active compound are dissolved in 0.5 ml solvent, and the concentrate is diluted with water to the desired concentration. Eight to ten adult engorged female Boophilus microplus ticks are placed in perforated plastic beakers and immersed in aqueous compound solution for one minute. Ticks are transferred to a filter paper in a plastic tray. Egg deposition of fertile eggs is monitored after. After 7 days mortality in % is determined. 100% means that all the ticks have been killed; 0% means that none of the ticks have been killed.

Structure (SMILES) | insecticidal activity [1] [%] | acaricidal activity [2] [%] | insecticidal activity [3] [%] | mortality at 100 ppm [4] [%] | mortality at 100 ppm [5] [%] | mortality at 100 ppm ([6]; Musca domestica, 48 h) [%] | activity (mortality in %) [7] [%] | activity (mortality in %) [6] [%]
CCC(=O)NCc1ccc(N2CC(c3cc(Cl)cc(Cl)c3)(C(F)(F)F)OC2=O)cc1C(F)(F)F (stereo not shown) [Compound 1-3, N-{4-[5-(3,5-dichlorophenyl)-2-oxo-5-(trifluoromethyl)-1,3-oxazolin-3-yl]-2-(trifluoromethyl)benzyl}propane amide] | 100 | 100 | 100 | 100 | 95 | 100 | – | –
CC(=O)NCc1ccc(N2CC(c3cc(Cl)c(Cl)c(Cl)c3)(C(F)(F)F)OC2=O)cc1C(F)(F)F (stereo not shown) [Compound 1-16] | 100 | 100 | 100 | – | – | – | 80 | 90
CCC(=O)NCc1ccc(N2CC(c3cc(Cl)c(Cl)c(Cl)c3)(C(F)(F)F)OC2=O)cc1C(F)(F)F (stereo not shown) [Compound 1-17] | 100 | 100 | 100 | – | – | – | 100 | 90
